Source: patent US12070444B2, “Modulation of molecular markers using S-equol” (Board of Regents, The University of Texas System, priority 2020, dated 2024)
Entries after “also recorded” stand apart in the source; their conditions may differ.

Key:
B16 = B16 tumors in mice with subcutaneous S-equol (Example 6, present tense); format: in vivo, mouse; conditions: B16 cells, daily s.c. S-equol 20 or 60 mg/kg per day vs PBS
Procedure: Further work in a preclinical animal model supports the notion of using S-equol to treat melanoma. In immunocompromised mouse experiments, using B16, a murine tumor cell line know to be useful to study human melanoma metastasis and solid tumor formation, growth of tumors is suppressed with S-equol treatment compared to control. 0.5×10^6 B16 cells are injected into normal BL mice. When the tumor masses reach 50 to 80 mm^3 (about one week after the inoculation), the mice are given daily subcutaneous injections of S-equol (20 or 60 mg/kg per day) or PBS as a vehicle control. Tumor development is followed by caliper measurements along two orthogonal axes: length (L) and width (W) and volume (V) is estimated by the formula V=[L×(W^2)]/2. Tumors harvested from mice are fixed in 10% neutral-buffered formalin, dehydrated, embedded in paraffin, and sectioned at 3 μm thickness. Representative tumor sections from vehicle control and S-equol-treated mice are tested for Ki-67 expression to assess cell proliferation, and for ERβ pY36. Statistical significance in the experiments is assessed by two-tailed Student's t test. In all assays, p<0.05 is considered statistically significant.

melanoma = test: Pilot biomarker clinical study of S-equol in melanoma (Example 7, present tense); format: in vivo, human; conditions: melanoma patients, oral S-equol 50 mg twice daily 10-21 days
Procedure: A pilot biomarker clinical study is performed in 20 subjects with documented melanoma to determine the effect of the ERβ agonist S-equol on Ki67 an indicator of tumor cell proliferation. Tumor cell proliferation is measured by immunohistological staining for Ki-67. Ki-67 is encoded by the gene MKI67 gene and is required to maintain individual mitotic chromosomes dispersed in the cytoplasm following nuclear envelope disassembly. Measuring the fraction of Ki-67-positive cells in a tumor is known to be a reliable parameter for assessing cancer patient prognosis. Subjects with TNBC are known to have very high levels of Ki67.
Patients enrolled in the study receive a history, physical, laboratory assessment, radiological imaging, and diagnostic biopsies. Immunohistochemistry (IHC) of Ki67 (proliferation marker), total ERβ, and pY36-ERβ (phosphorylated ERβ), B7H1 (also known as PDL-1) and MIA and S100B are conducted using core needle biopsy tissue samples prior to treatment. Patients are given oral S-equol 50 mg, twice daily for approximately two weeks (10-21 days) prior to the scheduled oncologic surgeries or start of primary systemic therapy. […]
A standard procedure for acquiring core biopsy is utilized for determining melanoma prior to enrollment. […] The tissue samples are sent for staining of total and pY36, ERβ and Ki67, and analyzed. […]

ERβ pY36 = biological target: T1, ERβ pY36 (Homo sapiens, UniProt Q92731); conditions: breast cancer cells; published work (Yuan, 2016); cited from earlier work
T1 construct: host or cells: MDA-MB-231 (human TNBC cell line)

cytochrome oxidase (COX) = conditions: brains from ovariectomized mice; cited from earlier work

T1 sequence (Q92731 whole entry): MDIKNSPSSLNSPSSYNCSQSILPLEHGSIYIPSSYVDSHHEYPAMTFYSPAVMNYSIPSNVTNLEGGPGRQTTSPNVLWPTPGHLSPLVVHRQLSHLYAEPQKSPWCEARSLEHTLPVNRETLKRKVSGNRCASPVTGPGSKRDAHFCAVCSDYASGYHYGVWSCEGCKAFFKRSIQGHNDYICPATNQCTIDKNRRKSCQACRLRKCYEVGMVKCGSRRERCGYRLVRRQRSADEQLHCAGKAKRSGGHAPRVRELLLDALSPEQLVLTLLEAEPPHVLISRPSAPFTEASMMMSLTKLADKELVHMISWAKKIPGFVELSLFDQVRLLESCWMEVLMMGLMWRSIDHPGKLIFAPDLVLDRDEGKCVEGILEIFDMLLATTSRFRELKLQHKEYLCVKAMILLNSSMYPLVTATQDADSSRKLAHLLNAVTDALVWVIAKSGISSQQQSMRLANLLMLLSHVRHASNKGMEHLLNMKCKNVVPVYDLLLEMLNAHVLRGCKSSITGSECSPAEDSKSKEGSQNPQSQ

SMILES: Oc1ccc([C@H]2COc3cc(O)ccc3C2)cc1 [S-equol]
- growth of tumors compared to control (B16): suppressed
- change in Ki67 pre- vs post-treatment (in words) (melanoma): measurable decrease in Ki67; also recorded: measurable decline in Ki67
- human ERβ phosphorylation at Y36 (ERβ pY36): promotes
- cytochrome oxidase (COX) activity and COX1 protein levels (cytochrome oxidase (COX)): increase
